System: Macrophages (RAW 264.7)
Experiment: adhesion structure assembly-mediated M2 phenotype under ROCK, myosin II or actin polymerization inhibition
Assay type: cell-based
Settings: M2-polarizing medium; for reduction of Arg-1 immunofluorescence on the magnet side / reduction of adherent macrophage area on the magnet side / reduction of adherent macrophage aspect ratio on the magnet side: 36 hours, 50 μM Y27632, 10 μM blebbistatin

Structure (SMILES) | reduction of Arg-1 immunofluorescence on the magnet side [%] | reduction of adherent macrophage area on the magnet side [%] | reduction of adherent macrophage aspect ratio on the magnet side [%] | decreases in the area, aspect ratio, and Arg-1 fluorescence of the adherent macrophages (2 μg/mL cytochalasin D)
Cc1ccc2c(c1)C(=O)C1(O)CCN(c3ccccc3)C1=N2 (stereo not shown) [blebbistatin] | 29 | 33 | 31 | 
C[C@@H](N)[C@H]1CC[C@H](C(=O)Nc2ccncc2)CC1 [Y27632] | 29 | 32 | 33 | 
C=C1[C@@H](C)[C@H]2[C@H](Cc3ccccc3)NC(=O)[C@]23[C@H](OC(C)=O)/C=C/[C@@](C)(O)C(=O)[C@@H](C)C/C=C/[C@H]3[C@@H]1O [cytochalasin D] |  |  |  | clearly observed

Reference: patent US11859169B2, “Nano-ligand for promoting cell adhesion and regeneration of macrophages and method of promoting cell adhesion and regeneration of macrophages by using the same” (Korea University Research and Business Foundation, priority 2020, dated 2024)
